# According to US7250430B2, “Thiophene-and thiazolesulfonamides as antineoplastic agents” (Eli Lilly and Company, priority 2006, dated 2007):
# System: Human Colon HCT116 tumor cells
# Test: HCT116 Colon Carcinoma Cell Growth Inhibition (WST-1)
# Format: cell-based
# Conditions: HCT-116, 72 hr exposure
# Description: Human HCT 116 colon carcinoma cells were grown monolayer culture in RPMI 1640 medium supplemented with 10% fetal bovine serum and 1% penicillin-streptomycin (GibcoBRL, Grand Island, N.Y.). HCT116 cells in exponential growth phase were exposed to various concentrations of the test compounds at 37° C. for 72 hr in 5% carbon dioxide/air. After exposure to the agent, the cells were washed with 0.9% phosphate buffered saline. Growth inhibition was determined using WST-1 cell proliferation reagent as described above. The results are expressed as the growth fraction of treated cells compared with control cultures. Representative compounds of the present invention were tested for efficacy against the human colon HCT116 tumor cells.
row,IC50,Structure (SMILES)
1,1 µM,"O=C(NS(=O)(=O)c1ccc(Cl)s1)c1ccc(Cl)cc1Cl [Example 61, N-[2,4-dichlorobenzoyl]-5-chlorothiophene-2-sulfonamide]"
2,8 µM,"Cc1cc(Cl)ccc1C(=O)NS(=O)(=O)c1ccc(C#N)s1 [Example 28, N-[4-chloro-2-methylbenzoyl]-5-cyanothiophene-2-sulfonamide]"
3,3.4 µM,"Cc1cc(Br)ccc1C(=O)NS(=O)(=O)c1ccc(Br)s1 [Example 57, N-[4-bromo-2-methylbenzoyl]-5-bromothiophene-2-sulfonamide]"
4,5.7 µM,"COCc1ccc(S(=O)(=O)NC(=O)c2ccc(Cl)cc2Cl)s1 [Example 20, N-[2,4-dichlorobenzoyl]-5-methoxymethyl-thiophene-2-sulfonamide]"
5,13.2 µM,"CCCc1ccc(S(=O)(=O)NC(=O)c2ccc(Cl)cc2Cl)s1 [Example 18, N-[2,4-dichlorobenzoyl]-5-(propyl)thiophene-2-sulfonamide]"
6,21.7 µM,"O=C(NS(=O)(=O)c1ccc(Br)s1)c1ccc(Cl)cc1F [Example 9, N-[4-chloro-2-fluorobenzoyl]-5-bromothiophene-2-sulfonamide]"
7,3.7 µM,"Cc1ccc(S(=O)(=O)NC(=O)c2ccc(Cl)cc2Cl)s1 [Example 16, N-[2,4-dichlorobenzoyl]-5-(methyl)thiophene-2-sulfonamide]"
8,1.3 µM,"O=C(NS(=O)(=O)c1ccc(Br)s1)c1ccc(Cl)cc1Cl [Example 63, N-[2,4-dichlorobenzoyl]-5-bromothiophene-2-sulfonamide]"
9,5.2 µM,"Cc1ccc(C(=O)NS(=O)(=O)c2ccc(Br)s2)c(Cl)c1 [Example 7, N-[2-chloro-4-methylbenzoyl]-5-bromothiophene-2-sulfonamide]"
10,14.7 µM,"O=C(NS(=O)(=O)c1cc(Br)c(Cl)s1)c1ccc(Br)cc1Cl [Example 3, N-[4-bromo-2-chlorobenzoyl]-4-bromo-5-chlorothiophene-2-sulfonamide]"
11,15.8 µM,"Cc1cc(Cl)ccc1C(=O)NS(=O)(=O)c1ccc(Cl)s1 [Example 30, N-[4-chloro-2-methylbenzoyl]-5-chlorothiophene-2-sulfonamide]"
12,5.8 µM,"COc1ccc(S(=O)(=O)NC(=O)c2ccc(Cl)cc2Cl)s1 [Example 19, N-[2,4-dichlorobenzoyl]-5-methoxythiophene-2-sulfonamide]"
13,4.5 µM,"O=C(NS(=O)(=O)c1cccs1)c1ccc(Cl)cc1Cl [Example 55, N-[2,4-dichlorobenzoyl]-thiophene-2-sulfonamide]"
14,17.3 µM,"Cc1cc(Br)ccc1C(=O)NS(=O)(=O)c1ccc(C#N)s1 [Example 29, N-[4-bromo-2-methylbenzoyl]-5-cyanothiophene-2-sulfonamide]"
15,5.6 µM,"O=C(NS(=O)(=O)c1ccc(Cl)s1)c1ccc(Br)cc1Cl [Example 1, N-[4-bromo-2-chlorobenzoyl]-5-chlorothiophene-2-sulfonamide]"
16,17 µM,"O=C(NS(=O)(=O)c1ccc(Br)s1)c1ccc(Br)cc1Cl [Example 54, N-[4-bromo-2-chlorobenzoyl]-5-bromothiophene-2-sulfonamide]"
17,9.1 µM,"Cc1ccc(C(=O)NS(=O)(=O)c2ccc(Cl)s2)c(Br)c1 [Example 31, N-[2-bromo-4-methylbenzoyl]-5-chlorothiophene-2-sulfonamide]"
18,5.2 µM,"O=C(NS(=O)(=O)c1ccc(Br)s1)c1ccc([N+](=O)[O-])cc1Cl [Example 58, N-[2-chloro-4-nitrobenzoyl]-5-bromothiophene-2-sulfonamide]"
19,3.9 µM,"O=C(NS(=O)(=O)c1ccc(Br)s1)c1ccc(Br)cc1Br [Example 32, N-[2,4-dibromobenzoyl]-5-bromothiophene-2-sulfonamide]"
20,6 µM,"Cc1cc(Cl)ccc1C(=O)NS(=O)(=O)c1ccc(Br)s1 [Example 2, N-[4-chloro-2-methylbenzoyl]-5-bromothiophene-2-sulfonamide]"
21,5.4 µM,"O=C(NS(=O)(=O)c1ccc(-c2ccccn2)s1)c1ccc(Cl)cc1Cl [Example 56, N-[2,4-dichlorobenzoyl]-5-(2-pyridyl)-thiophene-2-sulfonamide]"
22,7.7 µM,"O=C(NS(=O)(=O)c1ccc(Cl)s1)c1ccc(C(F)(F)F)cc1C(F)(F)F [Example 4, N-[2,4-bis(trifluoromethyl)-benzoyl]-5-chlorothiophene-2-sulfonamide]"
23,20.6 µM,"Cc1ccc(C(=O)NS(=O)(=O)c2ccc(Cl)s2)c(C)c1 [Example 6, N-[2,4-dimethylbenzoyl]-5-chlorothiophene-2-sulfonamide]"
24,5 µM,"CCc1ccc(S(=O)(=O)NC(=O)c2ccc(Cl)cc2Cl)s1 [Example 17, N-[2,4-dichlorobenzoyl]-5-(ethyl)thiophene-2-sulfonamide]"

# System: Human Colon Carcinoma HT-29
# Test: Human Tumor Xenograft Assay, tumor growth delay
# Format: in vivo, mouse
# Conditions: Experiment A, 30 mg/kg IV, 5 consecutive days, 2 days rest
# Excerpt: Inhibition of tumors transplanted into mice is an accepted procedure for studying the efficacy of antitumor agents (Corbett, et al., In vivo Methods for Screening and Preclinical Testing; Use of rodent solid tumors for drug discovery., In: Anticancer Drug Development Guide: Preclinical Screening, Clinical Trials, and Approval, B. Teicher (ed), Humana Press Inc., Totowa, N.J., Chapter 5, pages 75-99 (1997); (Corbett, et al., Int. J. Pharmacog., 33, Supplement, 102-122 (1995)). Murine tumors or human xenografts were implanted essentially as described by Corbett in In vivo Methods for Screening and Preclinical Testing; Use of rodent solid tumors for drug discovery. Briefly, the murine tumor or human xenograft was implanted subcutaneously using either 12-gauge trocar implants or counted number of cells. The location for the trocar insertion is midway between the axillary and inguinal region along the side of the mouse. The trocar is slipped approximately ¾ of an inch subcutaneously up toward the axilla before discharging the tumor fragment, and pinching the skin as the trocar is removed. Alternatively, human tumor cells prepared from cell culture (1×10^7 cells) mixed with an equal volume of Matrigel (Becton-Dickinson) were implanted subcutaneously in a hind-leg of a male or female nude mouse (Charles River). A test compound in vehicle or vehicle alone was administered by intravenous bolus injection (iv), intraperitoneal injection (ip), or oral gavage (po). Each treatment group, as well as a group of untreated control animals, consisted of eight to ten animals per group in each experiment. Subcutaneous tumor response was monitored by tumor volume measurement performed twice each week over the course of the experiment (60-120 days). Body weights were taken as a general measure of toxicity. The subcutaneous tumor data were analyzed by determining the median […] for each treatment group over the course of the experiment and calculating the tumor growth delay as the difference in days for the treatment versus the control tumors to reach a volume of either 500 or 1000 mm^3.
# The compound of Example 64 was tested in two separate laboratories against a variety of murine and human tumors substantially as described supra. The parameters measured in each experiment are summarized in the following paragraphs. Tumor Weight(mg)=(a×b^2)/2 where a=tumor length (mm) and b=tumor width (mm).
# Tumor Growth Delay=T−C where T is the median time (days) required for the treatment group tumors to reach a predetermined size, and C is the median time (days) for the control group tumors to reach the same size.
# After palpable tumors were observed drug was administered IV for 5 consecutive days, animals rested for 2 days and compound dosed IV again for 5 consecutive days.
row,Structure (SMILES),Tumor Growth Delay
1,"O=C([N-]S(=O)(=O)c1ccc(Br)s1)c1ccc(Cl)cc1Cl.[Na+] [Example 64, N-[2,4-dichlorobenzoyl]-5-bromothiophene-2-sulfonamide sodium salt]",0 ± 2 days

# Same assay, conditions: Experiment A, 60 mg/kg IV, 5 consecutive days, 2 days rest
row,Structure (SMILES),Tumor Growth Delay
1,"O=C([N-]S(=O)(=O)c1ccc(Br)s1)c1ccc(Cl)cc1Cl.[Na+] [Example 64, N-[2,4-dichlorobenzoyl]-5-bromothiophene-2-sulfonamide sodium salt]",2 ± 2 days

# Same assay, conditions: Experiment A, 80 mg/kg IV, 5 consecutive days, 2 days rest
row,Structure (SMILES),Tumor Growth Delay
1,"O=C([N-]S(=O)(=O)c1ccc(Br)s1)c1ccc(Cl)cc1Cl.[Na+] [Example 64, N-[2,4-dichlorobenzoyl]-5-bromothiophene-2-sulfonamide sodium salt]",2 ± 2 days

# Same assay, conditions: Experiment B, 30 mg/kg IV, 5 consecutive days, 2 days rest
row,Structure (SMILES),Tumor Growth Delay
1,"O=C([N-]S(=O)(=O)c1ccc(Br)s1)c1ccc(Cl)cc1Cl.[Na+] [Example 64, N-[2,4-dichlorobenzoyl]-5-bromothiophene-2-sulfonamide sodium salt]",9 ± 4 days

# Same assay, conditions: Experiment B, 60 mg/kg IV, 5 consecutive days, 2 days rest
row,Structure (SMILES),Tumor Growth Delay
1,"O=C([N-]S(=O)(=O)c1ccc(Br)s1)c1ccc(Cl)cc1Cl.[Na+] [Example 64, N-[2,4-dichlorobenzoyl]-5-bromothiophene-2-sulfonamide sodium salt]",3 ± 4 days

# Same assay, conditions: Experiment B, 80 mg/kg IV, 5 consecutive days, 2 days rest
row,Structure (SMILES),Tumor Growth Delay
1,"O=C([N-]S(=O)(=O)c1ccc(Br)s1)c1ccc(Cl)cc1Cl.[Na+] [Example 64, N-[2,4-dichlorobenzoyl]-5-bromothiophene-2-sulfonamide sodium salt]",8 ± 3.6 days
